This note sets out measurements from PubChem BioAssay AID386.

Sequence of GTP-binding protein Di-Ras1 (Homo sapiens) (O95057 whole entry, looked up): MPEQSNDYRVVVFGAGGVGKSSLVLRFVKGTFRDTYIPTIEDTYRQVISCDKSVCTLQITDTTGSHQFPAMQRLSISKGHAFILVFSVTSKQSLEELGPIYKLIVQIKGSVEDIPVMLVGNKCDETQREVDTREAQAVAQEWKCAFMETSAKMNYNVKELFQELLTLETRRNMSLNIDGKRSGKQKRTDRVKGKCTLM

This experiment has as its target GTP-binding protein Di-Ras1 (Homo sapiens) (UniProt O95057). The experiment in a line: DIRAS1 binders by thermal stabilization, biophysical, recombinant human GTPase, DSF (AID 386). The conditions noted are these: SYPRO orange, at 10 µM, protein 2 µM, buffer 10 mM HEPES, pH 7.5, NaCl 150 mM, stronger effect = higher value.
In the case of `O=c1c(O)c(-c2ccc(O)c(O)c2)oc2cc(O)cc(O)c12`, the Tm shift is 3.3 Celsius.

Take `COc1ccc(S(O)(O)N(CCO)c2ccccc2CN(C)C/C=C/c2ccc(Cl)cc2)cc1`: the Tm shift was 4.4 Celsius.

With `CN[C@@H]1C[C@H]2OC(C)([C@@H]1OC)n1c3ccccc3c3c4c(c5c6ccccc6n2c5c31)C(=O)NC4`, the Tm shift was 2.6 Celsius.

For `NS(=O)(=O)c1ccc(Nc2nc(OCC3CCCCC3)c3[nH]cnc3n2)cc1`, the Tm shift was 2.1 Celsius.
